{
  "source": "patent US20040204383A1",
  "about": "“Lysophosphatidic acid analogs and inhibition of neointima formation” (priority 2003, published 2004)",
  "key": {"rat carotid arteries": {"system": "rat carotid arteries", "assay": "Induction of neointima formation in rat carotid artery by topical application", "type": "in vivo", "settings": "for neointimal growth: 2.5 μM, 1 h exposure, monitored up to 8 wk (FIG. 4A)", "from_the_text": "Briefly, the right carotid artery of anesthetized adult male Sprague-Dawley rats (250-300 g) was surgically exposed. The caudal origin of the common carotid artery was ligated using a vessel clip, followed by exposure and ligation of the internal carotid artery above the bifurcation. The external carotid artery was exposed, and a polyethylene catheter was inserted such that it never reached the common carotid artery, thereby avoiding mechanical injury to the vessel. The clip occluding the common carotid artery was temporarily released, and the vessel was rinsed with a retrograde injection of 500 μl physiological saline to remove residual blood. The vessel was again clipped, and 100 μl of treatment solution was injected. After 60 min of incubation, the cannula was withdrawn, the external carotid artery was ligated, and blood flow was restored. Animals were allowed to recover and were killed 7-56 d later by intracardiac perfusion of 10% buffered formaldehyde (pH 7.4). The common carotid artery from the […] to the bifurcation was dissected, embedded in paraffin, and processed for histological analysis. Five μm-thick sections were cut and stained with hematoxylin and eosin or Masson's trichrome stain. Intima to media ratios were quantified using an image analysis system (Scion Image CMS-800)."}, "[1]": {"system": "vascular smooth muscle cells", "assay": "Phenotypic modulation and dedifferentiation of cultured VSMCs (morphology, hCAD mRNA)", "type": "cell-based, rat", "settings": "for morphology of VSMCs: 1 μM for 3 days, cultures established in 2 ng/ml IGF-1", "description": "Expression of lysophosphatidic acid-specific G protein-coupled plasma membrane receptors in rat carotid arteries was examined by RT-PCR as described earlier by Wang et al. (2002). To quantify heavy caldesmon mRNA, quantitative PCR was performed applying the real-time SYBR Green PCR method using a Sequence Detection System Model 7700 (Applied Biosystems) instrument. Rat heavy caldesmon and GAPDH (reference control mRNA)-specific primers were designed with Primer Express Software (Applied Biosystems), and forward and reverse primers were as follows: 5′-[…]-3′ (SEQ ID NO:1) and 5′-[…]-3′ (SEQ ID NO:2) for heavy caldesmon; 5′-[…]-3′ (SEQ ID NO:3) and 5′-[…]-3′ (SEQ ID NO:4) for GAPDH. Amplification reaction was performed with SYBR Green PCR Master Mix (Applied Biosystems) following the manufacturer's protocol. mRNA abundance calculation was based on Ct values as described previously (Wang et al., 2002). The expression level of heavy caldesmon mRNA was normalized to GAPDH mRNA. Each PCR reaction was performed at least three times, and the result was expressed as mean±SEM. Statistical comparison of mRNA expression was evaluated by ANOVA, and P<0.05 was considered statistically significant.\nIt has been reported that unsaturated lysophosphatidic acid species induced phenotypic modulation of cultured vascular smooth muscle cells (VSMCs). Because the neointimal response and PPARγ display a similar selectivity for unsaturated lysophosphatidic acid, that activation of PPARγ plays a role in the phenotypic dedifferentiation is hypothesized herein. This hypothesis was tested in a culture system in which IGF-1 maintains the differentiated spindle shape of vascular smooth muscle cells as indicated by high levels of heavy caldesmon (hCAD) mRNA expression."}, "PPARγ": {"system": "PPARγ", "assay": "Immunohistological staining for PPARγ in treated rat carotid arteries", "type": "in vivo", "settings": "LPA 2.5 μM, 4 wk after treatment; LDL data not shown", "description": "(§1) FIGS. 7A-D show immunohistological staining for PPARγ in rat carotid arteries. Only a few nuclei show PPARγ immunoreactivity in a carotid artery 4 wk after treatment with 2.5 μM LPA 20:0 (FIG. 7A). In contrast, the multilayered neointima elicited by LPA 20:4 expresses high levels of PPARγ immunoreactivity (FIG. 7B). Activation of PPARγ within neointima in LPA 20:4-treated carotid arteries is indicated by the strong expression of CD36 in a distribution that overlaps that of PPARγ (FIG. 7D). […] Anti-PPARγ and anti-CD36 were from Santa Cruz Biotechnology, Inc. Bars, 250 μm.\nExpression of PPARγ protein was examined in rat carotid arteries exposed to lysophosphatidic acid or minimally oxidized LDL."}, "CD36": {"system": "CD36", "assay": "Immunostaining for CD36 in treated rat carotid arteries", "type": "in vivo", "settings": "LPA 2.5 μM, 4 wk after treatment; LDL data not shown", "description": "as §1\nThe scavenger receptor CD36, a PPARγ-regulated gene, contains a PPAR response element within its promoter between base pairs −273 and −261. CD36 plays a critical role in lipid uptake by binding and transporting oxidized lipids, including minimally oxidized LDL. Thus, this pathway could provide a source of ligands, such as lysophosphatidic acid, alkyl-GP, and AZ-PC, to sustain PPARγ activation. Acyl and alkyl forms of lysophosphatidic acid both accumulate in human atherosclerotic plaques. Lysophosphatidic acid activates CD36-mediated lipid uptake into macrophages through a PPARγ-PPRE-dependent mechanism."}, "[2]": {"system": "CD36(−273)-Rluc reporter gene", "assay": "CD36(−273)-Rluc reporter gene (with PPRE) in CV-1 cells", "type": "cell-based", "settings": "10 μM, CV-1 cells (FIG. 7E)", "description": "(§2) Therefore, the investigators compared the unique in vivo neointima-eliciting lysophosphatidic acid structure-activity relationship with that of PPARγ using an in vitro assay that utilizes an acyl-coenzyme A oxidase-luciferase (PPRE-Acox-Rluc) reporter gene construct containing a peroxisome proliferator-activated receptor response element. CV-1 cells were plated in 96-well plates (5×10^3 cells per well) in DME supplemented with 10% FBS. The next day, the cells were transiently transfected with 125 ng of pGL3-PPRE-acyl-CoA oxidase (Acox)-renilla luciferase), or 125 ng pGL3-CD36(−273), or pGL3-CD36(−261), 62.5 ng of pcDNAI-PPARγ, and 12.5 ng of pSV-β-galactosidase (Promega) using LipofectAMINE™ 2000 (Invitrogen). Twenty four hours after transfection, cells were treated with 1% FBS-supplemented OptiMEMI™ (Invitrogen) containing DMSO or test compound (10 μM) in DMSO for 20 h. Luciferase and β-galactosidase activities were measured with the Steady-Glo® Luciferase Assay System (Promega) and the Galacto-Light Plus™ System (Applied Biosystems), respectively. Samples were run in quadruplicate, and the mean±SE were calculated. Data are representative of at least three independent transfections. Student's t test was used for null hypothesis testing, and P<0.05 was considered significant."}, "[3]": {"system": "CD36(−261)-Rluc reporter gene", "assay": "CD36(−261)-Rluc reporter gene (deleted PPRE) in CV-1 cells", "type": "cell-based", "settings": "10 μM, CV-1 cells (FIG. 7E)", "description": "as §2"}, "LPA3": {"molecular_target": "T1, LPA3 (Homo sapiens, UniProt Q9UBY5)", "T1 sequence (Q9UBY5 1-353)": "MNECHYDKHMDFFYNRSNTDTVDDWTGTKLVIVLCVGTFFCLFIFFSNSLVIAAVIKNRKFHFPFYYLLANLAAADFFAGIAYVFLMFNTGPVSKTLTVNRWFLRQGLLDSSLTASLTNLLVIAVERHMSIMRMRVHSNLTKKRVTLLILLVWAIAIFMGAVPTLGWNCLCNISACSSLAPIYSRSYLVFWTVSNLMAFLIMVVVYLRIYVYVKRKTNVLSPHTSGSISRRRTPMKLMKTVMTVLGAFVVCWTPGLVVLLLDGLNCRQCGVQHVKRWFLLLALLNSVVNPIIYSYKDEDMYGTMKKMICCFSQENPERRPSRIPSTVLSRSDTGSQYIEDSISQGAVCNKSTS", "settings": "cited from earlier work"}, "LPA2": {"molecular_target": "LPA2 (Homo sapiens, UniProt Q9HBW0)", "sequence (Q9HBW0 whole entry, species assumed)": "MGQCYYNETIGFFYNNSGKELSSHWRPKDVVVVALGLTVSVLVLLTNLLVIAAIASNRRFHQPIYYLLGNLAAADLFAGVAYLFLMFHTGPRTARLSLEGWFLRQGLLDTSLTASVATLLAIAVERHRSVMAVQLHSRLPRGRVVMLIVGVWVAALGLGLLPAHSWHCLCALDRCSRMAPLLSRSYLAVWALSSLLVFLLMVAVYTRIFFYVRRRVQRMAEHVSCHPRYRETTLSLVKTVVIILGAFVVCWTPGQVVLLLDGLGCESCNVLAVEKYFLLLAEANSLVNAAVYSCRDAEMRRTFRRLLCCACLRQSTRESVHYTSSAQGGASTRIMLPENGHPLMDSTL", "settings": "cited from earlier work"}, "LPA1": {"molecular_target": "LPA1 (Homo sapiens, UniProt Q92633)", "sequence (Q92633 whole entry, species assumed)": "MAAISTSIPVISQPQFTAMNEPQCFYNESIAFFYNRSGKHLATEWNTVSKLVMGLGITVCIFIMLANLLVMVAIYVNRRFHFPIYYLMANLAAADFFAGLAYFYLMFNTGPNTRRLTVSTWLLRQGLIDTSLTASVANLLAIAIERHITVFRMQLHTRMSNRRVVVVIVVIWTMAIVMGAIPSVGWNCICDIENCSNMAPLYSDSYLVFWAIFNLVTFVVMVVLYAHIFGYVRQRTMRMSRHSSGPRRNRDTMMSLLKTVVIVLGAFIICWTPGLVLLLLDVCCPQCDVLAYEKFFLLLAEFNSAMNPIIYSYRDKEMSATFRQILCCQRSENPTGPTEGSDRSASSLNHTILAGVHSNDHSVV", "settings": "cited from earlier work"}},
  "data": [
    {"smiles": "CCCCCCCCCCCCCCCCCCCC(=O)OC[C@@H](O)COP(=O)(O)O", "note": "[LPA 20:0]", "values": [
      {"measurement": "neointimal growth", "setting": "rat carotid arteries", "result": "completely inactive"},
      {"measurement": "morphology of VSMCs", "setting": "[1]", "result": "maintained the spindle-like differentiated morphology"},
      {"measurement": "PPARγ immunoreactivity in carotid artery", "setting": "PPARγ", "result": "only a few stained nuclei"},
      {"measurement": "CD36 immunoreactivity in carotid artery", "setting": "CD36", "result": "no increase in immunoreactivity"}
    ]},
    {"smiles": "CCCCC/C=C\\C/C=C\\C/C=C\\C/C=C\\CCCC(=O)OC[C@@H](O)COP(=O)(O)O", "note": "[LPA 20:4]", "values": [
      {"measurement": "neointimal growth", "setting": "rat carotid arteries", "result": "elicited progressive neointimal growth"},
      {"measurement": "neointima formation when delivered as BSA complexes", "setting": "rat carotid arteries; Rosi 10 μM, LPA 20:4 2.5 μM, 10 μM albumin, 2 wk after treatment (FIG. 7F)", "result": "elicited neointima formation"},
      {"measurement": "neointima formation when delivered in rat plasma or serum", "setting": "rat carotid arteries; Rosi 10 μM, LPA 20:4 2.5 μM, 2 wk after treatment (FIG. 7F)", "result": "no neointima formation was detected"},
      {"measurement": "stimulation of CD36(−273)-Rluc reporter gene", "setting": "[2]", "result": "elicited significant stimulation"},
      {"measurement": "stimulation of CD36(−261)-Rluc reporter gene (deleted PPRE)", "setting": "[3]", "result": "neither Rosi nor lysophosphatidic acid 20:4 activated the reporter gene"},
      {"measurement": "morphology of VSMCs", "setting": "[1]", "result": "developed a fibroblast-like flattened morphology"},
      {"measurement": "decrease of hCAD mRNA expression", "setting": "[1]; quantitative RT-PCR, day 5 (FIG. 8I)", "result": "most pronounced"},
      {"measurement": "PPARγ immunoreactivity in carotid artery", "setting": "PPARγ", "result": "intense PPARγ immunoreactivity"},
      {"measurement": "CD36 immunoreactivity in carotid artery", "setting": "CD36", "result": "intense CD36 immunoreactivity"}
    ]},
    {"smiles": "CCCCCCCCCCCCOP(=O)(O)O", "note": "[fatty alcohol phosphate 12:0]", "values": [
      {"measurement": "activity at LPA3", "setting": "LPA3", "result": "antagonist"},
      {"measurement": "activity at LPA2", "setting": "LPA2", "result": "specific agonist"},
      {"measurement": "activity at LPA1", "setting": "LPA1", "result": "without any effect"}
    ]}
  ]
}
